The values that follow come from US10959984B2, “Methods for treating cancer with RORγ inhibitors” (THE REGENTS OF THE UNIVERSITY OF CALIFORNIA, priority 2015, dated 2021).

Structures are written as SMILES. Entries after “also recorded” stand apart in the source; their conditions may differ.

One test relates to AR-positive PCa cells. Kind of test: Prostate cancer cell growth and survival (cell viability / cell growth). The format is cell-based, human. As to the method:
(§1) For cell viability, cells were seeded in 96-well plates at 1500-2500 cells per well (optimum density for growth) in a total volume of 100 μl media. Serially diluted compounds in […] of media were added to the cells 12 hours later. After 4 days of incubation, Cell-Titer GLO reagents (Promega) were added and luminescence was measured on GLOMAX microplate luminometer (Promega), according to the manufacturer's instructions. All experimental points were set up as sextuplicate as biological replication and the entire experiments were repeated three times. The data are presented as percentage of viable cells with vehicle treated cells set as 100. The estimated in vitro IC50 values were calculated using GraphPad Prism 6 software.
For apoptosis, Terminal deoxynucleotidyl transferase-mediated dUTP nick end labeling (TUNEL) was performed by using in situ cell death detection kit (Roche) as previously described^56. The results are expressed as a percentage of apoptotic cell number/total cell number. Caspase-3/7 activity was measured using a luminescent caspase-Glo 3/7 assay kit (Promega Corporation, Madison, USA) following the manufacturer's instructions. For cell growth, cells were seeded in 6-well plates at 2×10^5 per well and treated as indicated. Total viable cell numbers were counted using a Coulter cell counter. For colony formation, 800 cells were seeded in a well of 6-well plates and cultured for 14 days with the medium changed every 3 days. When the cell clone grew visible, the medium was removed and the cells were fixed with […] formalin for 10 minutes. Then the plates were washed with PBS for two times and the cell colonies were stained with 0.2% crystal violet (in 10% formalin) for 15 minutes. The numbers of cell colonies were counted after washed 5 times by PBS. The above assays were performed in triplicates and the entire experiments were repeated three times.

For test [1], the system named is TNBC cells including MDA-MB468, MDA-MB231, BT20, SUM149, and HCC1937. Kind of test: CellTiter-GLO viability, triple-negative breast cancer cells. The format is cell-based. The conditions noted are these: Homo sapiens, 96 h, treated for 4 days. As to the method: as §1
(§2) Using a CellTiter-GLO assay, the viability of cells of different cancer types was measured after treatment with different concentrations of RORγ small molecule inhibitors for 4 days.
Background: Cellular ATP, detected with luciferase, serves as a proxy for viable cell number.

The next test has as its system MCF-7-TamR cell line. Kind of test: Growth of tamoxifen-resistant breast cancer cells. The format is cell-based, human. As to conditions: MCF-7 TamR cells, in combination with tamoxifen. As for the experimental part: as §2
The subject of a further test is lung cancer cells. Nature of the test: CellTiter-GLO viability, lung cancer cells. The format is cell-based, human. As to conditions: NSCLC cells: KRAS mutant (A427, Calu1, A549, H23, H358), BRAF mutant (H1666), EGFR mutant (HCC827, PC-9), Erlotinib-resistant (A427, H1975); 4 days. As for the experimental part: as §1, §2
A further test deals with VCaP xenograft tumors. Kind of test: Spontaneous metastasis of VCaP xenografts (Alu-qPCR). The format is in vivo, mice. The conditions noted are these: treated 23 d. As for the experimental part:
FIGS. 28A-28C show the in vivo effects of RORγ inhibition on tumor metastasis, mouse body weight and organ weight in xenograft models. FIG. 28A: Mice bearing VCaP xenografts as in FIG. 11D, treated with vehicle, SR2211, ENZ or combination for 23 d, were assessed for spontaneous metastasis to the femur (bone marrow) and liver. Genomic DNA isolated from these sites was analyzed for metastasized cells by measuring human Alu sequence (by Alu-qPCR). FIG. 28B: Body weight of mice from different treatment groups. FIG. 28C: Weight of indicated tissues from mice treated with vehicle or SR2211 for 24 days as in FIG. 11A of C4-2B xenograft model. Significance was calculated using Student's t-test, *p=0.01, n=6.

Consider `OC(c1ccc(-c2ccc(CN3CCN(Cc4ccncc4)CC3)cc2)c(F)c1)(C(F)(F)F)C(F)(F)F` [SR2211, 2-Fluoro-4′-[[4-(4-pyridinylmethyl)-1-piperazinyl]methyl]-a,a-bis (trifluoromethyl)-[1,1′-biphenyl]-4-methanol], for which, in the test with AR-positive PCa cells (22Rv1, VCaP, LNCaP, LAPC4 and PC346C), the “growth inhibition in other AR-positive PCa cell models” value is “strong growth inhibition”. Also, the “inhibition of AR-positive PCa cell growth and survival” value with AR-positive PCa cells (different cell line models) is “potent inhibition of AR-positive PCa cell growth and survival”. The IC50 in test [1] was in the range of 1 to 10 µM. For the same compound, the “sensitization of tamoxifen-resistant breast cancer cells to tamoxifen” value in the test on MCF-7-TamR cell line was “able to sensitize tamoxifen-resistant breast cancer cells to tamoxifen; also recorded: sensitized MCF-7 TamR cells to tamoxifen”. For the same compound, the “growth and survival of lung cancer cells” value in the test with lung cancer cells is “strongly inhibited the growth and survival of lung cancer cells”. Moreover, the “metastasis to femur bone and liver” value with VCaP xenograft tumors is “strongly inhibited the metastasis to femur bone and liver”.

What is called IC50 is the concentration that inhibits the measured activity by half. A higher IC50 goes with weaker potency.
